According to patent US11981640B1, “4,5-bis(4-chlorophenyl)-1-hexyl-2-(3-hydroxy-4-methoxyphenyl)-1H-imidazole as an antimicrobial compound” (KING FAISAL UNIVERSITY, priority 2023, dated 2024):

Tests used:
Type in all cases: cell-based
Details in all cases: after 10, 20, 40 and 60 minutes at all dilutions 1:100, 1:200, 1:400, 1:800
Staphylococcus aureus = assay: Antimicrobial testing by agar dilution, Staphylococcus aureus
Method: (§1) The antimicrobial properties of the 4,5-bis(4-chlorophenyl)-1-hexyl-2-(3-hydroxy-4-methoxyphenyl)-1H-imidazole (5) were studied by the method of agar dilution. Test solutions of each compound were prepared in concentration of 1% using dimethylformamide as a solvent then they are diluted in physiological solution to obtain the final experimental dilutions 1:100, 1:200, 1:400, 1:800. The effect of these substances were compared with furacillin in a controllable study. The testing microbes used were gram positive bacteria Staphylococcus aureus, gram negative bacteria Escherichia coli, Pseudomonas aeruginosa and Candida albicans fungi were taken. The experiments used for this survey were meat-pentonlu agar (EPA) for cultivation of bacteria and Saburo environment for fungi. Each experiment used 1 ml of test solution on each plate 500 min. Add 2 drops of emulsified with microbes feel. All experimental samples were taken from the agar after 10, 20, 40, 60 minutes in the environment on the basis of Patrk planted. Bacteria were cultivated at a temperature of 37° C. for 1 day and the mushroom was kept in a thermostat for 2 hours at a temperature of 28° C. in the. Then results were checked.

Escherichia coli = assay: Antimicrobial testing by agar dilution, Escherichia coli
Method: as §1

Pseudomonas aeruginosa = assay: Antimicrobial testing by agar dilution, Pseudomonas aeruginosa
Method: as §1

Candida albicans = assay: Antimicrobial testing by agar dilution, Candida albicans
Method: as §1

CCCCCCn1c(-c2ccc(OC)c(O)c2)nc(-c2ccc(Cl)cc2)c1-c1ccc(Cl)cc1 [4,5-bis(4-chlorophenyl)-1-hexyl-2-(3-hydroxy-4-methoxyphenyl)-1H-imidazole]
highest inhibition activity: inhibition activity, Staphylococcus aureus (Staphylococcus aureus) | inhibition activity, Escherichia coli (Escherichia coli) | inhibition activity, Pseudomonas aeruginosa (Pseudomonas aeruginosa) | inhibition activity, Candida albicans (Candida albicans)
